According to patent US20050191283A1, “Methods of treating NFAT-related disorders” (priority 2003, published 2005):
Entries after “also recorded” stand apart in the source; their conditions may differ.

Key:
[1] = system: IFN-γ expression in UCB T lymphocytes; experiment: Intracellular IFN-γ staining in gated CD3+ cells of UCB MNC; assay type: cell-based, human; conditions: for average percentage of T cells producing IFN-γ: whole UCB MNC
Experimental: (§1) Human umbilical cord blood from full-term deliveries by vaginal or caesarean sections and adult peripheral blood from healthy donors was collected according to guidelines by the Institutional Review Board at University Hospitals of Cleveland. Mononuclear cells (MNC) were isolated by gradient centrifugation, as previously described (6) and used immediately fresh.
(§2) Total MNC were stimulated in bulk culture as previously described (6). Briefly, 2×10^6 cells/ml were stimulated with 2 μg/ml of concanavalin A (ConA) (Sigma Chemical Co, St Louis, Mo.) in complete RPMI medium (Gibco BRL, Gaithersburg, Md.), containing 10% fetal bovine serum (Gibco BRL), 1 mM Sodium-pyruvate, 0.1 mM nonessential amino acids, 10 mM HEPES and 58 μM 2-mercaptoethanol (Sigma Chemical Co), in presence or absence of the manufacturer's recommended concentration of 1 μg/ml of cyclosporin A (CsA) (Sigma Chemical Co), as previously described (7). Where specified, IFN-γ (Roche, Indianapolis, Ind.) was added at indicated concentrations, or neutralizing anti-IFN-γ antibody (R&D Systems, Minneapolis, Minn.) was added at a concentration of 0.25-2 μg/ml. Purified T cells were stimulated as described (26), with plate-bound anti-CD3 (1 μg/ml) and soluble anti-CD28 (5 μg/ml) monoclonal antibodies. Elispot assays were performed as previously described (27). Briefly, ImmunoSpot plates M200 (Cellular Technology Limited, Cleveland Ohio) were coated with capture antibody for IFN-γ M700A-E (2 μg/ml; Endogen, Woburn, Mass.), washed and MNC were plated in complete RPMI medium with 5% ABO serum (Gemini Bioproducts, Calmasas, Calif.)+1% L-glutamine, at 3×10^5 per well. Cells were stimulated with irradiated 3×10^5 T-cell-depleted MNC from a healthy adult or cord blood. T cells were depleted with RosetteSep (StemCell Technologies, Vancouver, Canada), according to manufacturer's directions. After 24 h of stimulation, plates were washed and incubated over night with secondary biotinylated detection antibodies against IFN-γ M701 (0.5 μg/ml; Endogen, Woburn, Mass.). Streptavidin-HRP conjugate (Dako Corp., Carpenteria Calif.) was added and the spots were visualized using the HRP-substrate AEC (Pierce Pharmaceuticals, Rockford Ill.), and subjected to image analysis on a Series 1 ImmunoSpot Image Analyzer (Cellular Technology, Cleveland, Ohio) specifically designed for automated evaluation of ELISPOTs.
MNC from UCB were depleted of monocytes by using monoclonal antibody against CD11b (Pharmingen), followed by anti-IgG magnetic bead (Dynal) depletion as above, or by using anti-CD14 microbeads (Miltenyi Biotech Inc., Auburn, Calif.) and AutoMACS (Miltenyi Biotech Inc.), according to manufacturer's protocol.
Intracellular IFN-γ staining was performed as described previously (6, 7). […] 1×10^6 cells were stained for 30 minutes with the following antibodies: anti-IFN-γ-FITC or -PE (R&D Systems), anti-CD3-APC (Pharmingen), and anti-CD69-PE (Pharmingen) or -PerCP (Becton Dickinson, San Jose, Calif.) and the corresponding isotype controls (Pharmingen, Becton Dickinson). 20,000-80,000 events were acquired on a calibrated Elite ESP flow cytometer (Coulter, Miami, Fla.) and data were analyzed with WinList software (Verity Software House Inc, Topsham, Minn.). For intracellular staining of NFATc2, the same monoclonal antibody clone as used in immunoblotting was custom FITC-conjugated (Transduction Laboratories) and used at a titrated concentration of 1 μg/10^6 cells.

[2] = system: IFN-γ expression in purified UCB T cells; experiment: Intracellular IFN-γ staining in purified UCB T cells; assay type: cell-based, human
Experimental: as §1
(§3) Total MNC were stimulated in bulk culture as previously described (6). Briefly, 2×10^6 cells/ml were stimulated with 2 μg/ml of concanavalin A (ConA) (Sigma Chemical Co, St Louis, Mo.) in complete RPMI medium (Gibco BRL, Gaithersburg, Md.), containing 10% fetal bovine serum (Gibco BRL), 1 mM Sodium-pyruvate, 0.1 mM nonessential amino acids, 10 mM HEPES and 58 μM 2-mercaptoethanol (Sigma Chemical Co), in presence or absence of the manufacturer's recommended concentration of 1 μg/ml of cyclosporin A (CsA) (Sigma Chemical Co), as previously described (7). Where specified, IFN-γ (Roche, Indianapolis, Ind.) was added at indicated concentrations, or neutralizing anti-IFN-γ antibody (R&D Systems, Minneapolis, Minn.) was added at a concentration of 0.25-2 μg/ml. […]
(§4) Intracellular IFN-γ staining was performed as described previously (6, 7). […] 20,000-80,000 events were acquired on a calibrated Elite ESP flow cytometer (Coulter, Miami, Fla.) and data were analyzed with WinList software (Verity Software House Inc, Topsham, Minn.). […]

[3] = system: IFN-γ expression in purified adult T cells; experiment: Intracellular IFN-γ staining in purified adult T cells; assay type: cell-based, human; conditions: anti-CD3/CD28 24 h, exogenous IFN-γ 100 U/ml
Experimental: as §1, §3, §4

[4] = system: NFATc2 expression in adult T lymphocytes; experiment: NFATc2 protein expression by intracellular flow cytometry in gated CD3+ cells of stimulated adult MNC; assay type: cell-based, human; conditions: adult MNC stimulated 24 h, exogenous IFN-γ 100 U/ml
Experimental: as §1, §3, §4

[5] = system: NFATc2 expression in UCB T lymphocytes; experiment: NFATc2 protein expression by intracellular flow cytometry in gated CD3+ cells of UCB MNC; assay type: cell-based, human; conditions: for NFATc2 expression (dual staining for NFATc2 and IFN-γ): ConA alone or ConA + 100 U/ml IFN-γ
Experimental: as §1, §2
as §4, with “7). Briefly, MNC were stimulated for the indicated time points, for the last 6-8 h in the presence of 5 μg/ml of Brefeldin A (Sigma Chemical Co), and permeabilized.” for “7).”

[6] = system: IFN-γ expression by UCB MNC; conditions: exogenous IL-12 added to the stimulation conditions; cited from earlier work
[7] = experiment 1, whole UCB MNC, 24 h
[8] = experiment 2, whole UCB MNC, 24 h
[9] = experiment 3, whole UCB MNC, 24 h
[10] = experiment 4, whole UCB MNC, 24 h

TNF-A
upregulation of IFN-γ expression ([1]; UCB MNC, ConA 24 h, TNF-A (1 ng/ml) or IL-2 added in place of IFN-γ): did not result in upregulation of IFN-γ expression

IFN-γ: IFN-γ (Roche, Indianapolis, Ind.) added exogenously during stimulation
IFN-γ rescue effect ([2]; ConA, IFN-γ added): no IFN-γ rescue effect was observed | IFN-γ expression ([2]; anti-CD3/CD28 24 h, exogenous IFN-γ 100 U/ml): could not be rescued | IFN-γ expression [3]: no increase in IFN-γ expression was observed | IFN-γ-mediated rescue effect ([1]; UCB MNC depleted of B cells and NK cells): did not result in a significant loss of the IFN-γ-mediated rescue effect | average percentage of IFN-γ producing T cells ([1]; UCB MNC depleted of monocytes prior to stimulation, ConA + IFN-γ, n=4): 1.0% | percentages of IFN-γ-expressing T lymphocytes ([1]; UCB MNC, ConA 24 h, exogenous IFN-γ 100 U/ml): rose close to that measured in adult T lymphocytes | lowest dose of exogenous IFN-γ with effective IFN-γ rescue ([1]; UCB MNC, ConA stimulation, dose titrated down): 50 U/ml | IFN-γ expression ([1]; UCB MNC, no stimulation, IFN-γ alone 100 U/ml): did not stimulate IFN-γ expression | percentages of CD3+ cells positive for IFN-γ staining ([1]; experiment 1, UCB MNC depleted of CD11b, 24 h): 0.89% | percentages of CD3+ cells positive for IFN-γ staining [1, 7]: 1.38% | percentages of CD3+ cells positive for IFN-γ staining ([1]; experiment 2, UCB MNC depleted of CD11b, 24 h): 0.92% | percentages of CD3+ cells positive for IFN-γ staining [1, 8]: 1.41% | percentages of CD3+ cells positive for IFN-γ staining ([1]; experiment 3, UCB MNC depleted of CD11b, 24 h): 1.30% | percentages of CD3+ cells positive for IFN-γ staining [1, 9]: 1.74% | percentages of CD3+ cells positive for IFN-γ staining ([1]; experiment 4, UCB MNC depleted of CD14, 24 h): 1.07% | percentages of CD3+ cells positive for IFN-γ staining [1, 10]: 1.83% | average percentage of T cells producing IFN-γ ([1]; n=4): 1.6% | NFATc2 expression [4]: further upregulation of NFATc2 | NFATc2 protein expression ([5]; ConA 16 h, added IFN-γ 10-1,000 U/ml, gated CD3+ cells): increased in a dose dependent manner | NFATc2 expression (dual staining for NFATc2 and IFN-γ) [5]: strong increases of NFATc2 expression | NFATc2 levels ([5]; absence of stimulation, IFN-γ alone 100 U/ml): intermediate between unstimulated and stimulated T lymphocytes; also recorded: only slightly increased NFATc2 expression

concanavalin A [ConA, reference compound]
IFN-γ expression ([1]; UCB MNC, ConA alone): only a slight increase in IFN-γ expression | percentages of CD3+ cells positive for IFN-γ staining [1, 7]: 0.96% | percentages of CD3+ cells positive for IFN-γ staining [1, 8]: 0.78% | percentages of CD3+ cells positive for IFN-γ staining [1, 9]: 0.96% | percentages of CD3+ cells positive for IFN-γ staining [1, 10]: 1.05% | average percentage of T cells producing IFN-γ ([1]; n=4): 0.9% | NFATc2 expression (dual staining for NFATc2 and IFN-γ) [5]: increase in NFATc2 upregulation

C[C@H]1CCC/C=C/[C@@H]2C[C@H](O)C[C@H]2[C@H](O)/C=C/C(=O)O1 [Brefeldin A, reference compound]
upregulation of IFN-γ in UCB T cells ([1]; UCB MNC, ConA ± IFN-γ 100 U/ml, BFA added immediately and for the whole stimulation (BFA 24 h)): no upregulation of IFN-γ could be observed

B1: IL-12: exogenous cytokine, literature result (ref 44) (protein, UniProt P29459 23-219; P29460 23-328, looked up)
Interleukin-12 subunit alpha: RNLPVATPDPGMFPCLHHSQNLLRAVSNMLQKARQTLEFYPCTSEEIDHEDITKDKTSTVEACLPLELTKNESCLNSRETSFITNGSCLASRKTSFMMALCLSSIYEDLKMYQVEFKTMNAKLLMDPKRQIFLDQNMLAVIDELMQALNFNSETVPQKSSLEEPDFYKTKIKLCILLHAFRIRAVTIDRVMSYLNAS
Interleukin-12 subunit beta: IWELKKDVYVVELDWYPDAPGEMVVLTCDTPEEDGITWTLDQSSEVLGSGKTLTIQVKEFGDAGQYTCHKGGEVLSHSLLLLHKKEDGIWSTDILKDQKEPKNKTFLRCEAKNYSGRFTCWWLTTISTDLTFSVKSSRGSSDPQGVTCGAATLSAERVRGDNKEYEYSVECQEDSACPAAEESLPIEVMVDAVHKLKYENYTSSFFIRDIIKPDPPKNLQLKPLKNSRQVEVSWEYPDTWSTPHSYFSLTFCVQVQGKSKREKKDRVFTDKTSATVICRKNASISVRAQDRYYSSSWSEWASVPCS
IFN-γ expression by UCB MNC [6]: could be increased
